Test results reported in patent US20150105252A1, “SUBSTITUTED PYRAZOLES AS HERBICIDES” (E I DU PONT DE NEMOURS AND COMPANY, priority 2013, published 2015).

Tests used:
crabgrass, large [1] = assay: Test A preemergence; type: in vivo, Digitaria sanguinalis
Summary of the method: (§1)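 Injury readout: eye-scored versus untreated controls, 0 to 100. Exposure period: ~10 days, greenhouse. Application: soil-directed spray over sown seed (pre) or spray on seedlings 2–10 cm tall with one or two leaves (post), compound carried in non-phytotoxic solvent including surfactant.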

pigweed = assay: Test A preemergence; type: in vivo, Amaranthus retroflexus; details: for Pigweed plant response rating (0 to 100 scale): visual injury approx. 10 days after treatment
Summary of the method: as §1

crabgrass, large [2] = assay: Test A postemergence; type: in vivo, Digitaria sanguinalis
Summary of the method: as §1

wheat [3] = assay: Test A postemergence; type: in vivo, Triticum aestivum
Summary of the method: as §1

corn = assay: Test A postemergence; type: in vivo, Zea mays
Summary of the method: as §1

rice = assay: Test B flood; type: in vivo, Oryza sativa; details: 250 g ai/ha, visual rating on 0 to 100 scale (0 no effect, 100 complete control), 13 to 15 days
Summary of the method: (§2)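 Flooded-pot test: compound dosed into 3 cm of standing water above soil when plants had two leaves. Visual control ratings (0–100) versus untreated plants after 13–15 d.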

ducksalad = assay: Test B flood; type: in vivo, Heteranthera limosa; details: 250 g ai/ha, visual rating on 0 to 100 scale (0 no effect, 100 complete control), 13 to 15 days
Summary of the method: as §2

galium = assay: Test C preemergence; type: in vivo, Galium aparine; details: for Galium plant response rating / Plant response rating, Galium: preemergence; for Plant response rating, Galium: scale 0 to 100, 0 = no effect, 100 = complete control
Summary of the method: (§3)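 Seeds were sown in a loam soil–sand blend and sprayed preemergence with compounds formulated in a non-phytotoxic solvent mixture containing surfactant. Postemergence plants, grown in peat/vermiculite medium to 2–18 cm (1- to 4-leaf stage), received the same formulation. After 13 to 15 days in a greenhouse, injury was rated visually against controls (0 = no effect, 100 = complete control).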

waterhemp = assay: Test C preemergence; type: in vivo, Amaranthus rudis; details: for Waterhemp plant response rating / Plant response rating, Waterhemp: preemergence; for Plant response rating, Waterhemp: scale 0 to 100, 0 = no effect, 100 = complete control
Summary of the method: as §3

wheat [4] = assay: Test C postemergence; type: in vivo, Triticum aestivum; details: for Plant response rating (scale of 0 to 100 where 0 is no effect and 100 is complete control), Wheat: Postemergence, 31 g ai/ha, visually evaluated after 13 to 15 days; for Wheat plant response rating / Plant response rating, Wheat: postemergence; for Wheat plant response rating: scale 0 to 100
Description: (§4) Seeds of plant species selected from blackgrass (Alopecurus myosuroides), ryegrass, Italian (Italian ryegrass, Lolium multiflorum), wheat (winter wheat, Triticum aestivum), galium (catchweed bedstraw, Galium aparine), corn (Zea mays), crabgrass, large (large crabgrass, Digitaria sanguinalis), foxtail, giant (giant foxtail, Setaria faberii), johnsongrass (Sorghum halepense), lambsquarters (Chenopodium album), morningglory (Ipomoea coccinea), nutsedge, yellow (yellow nutsedge, Cyperus esculentus), pigweed (redroot pigweed, Amaranthus retroflexus), ragweed (common ragweed, Ambrosia elation), soybean (Glycine max), barnyardgrass (Echinochloa crus-galli), oilseed rape (Brassica napus), waterhemp (common waterhemp, Amaranthus rudis), oat, wild (wild oat, Avena fatua), kochia (Kochia scoparia), Surinam grass (Brachiaria decumbens), foxtail, green (green foxtail, Setaria viridis), goosegrass (Eleusine indica), bromegrass, downy (downy bromegrass, Bromus tectorum), nightshade (eastern black nightshade, Solanum ptycanthum), cocklebur (common cocklebur, Xanthium strumarium), cupgrass, woolly (woolly cupgrass, Eriochloa villosa), bermudagrass (Cynodon dactylon), sunflower, (common oilseed sunflower, Helianthus annuus), Russian thistle (Salsola kali), and velvetleaf (Abutilon theophrasti) were planted into a blend of loam soil and sand and treated preemergence with test chemicals formulated in a non-phytotoxic solvent mixture which included a surfactant.
(§5) At the same time, plants selected from these crop and weed species and also chickweed (common chickweed, Stellaria media), canarygrass (littleseed canarygrass, Phalaris minor), and deadnettle (henbit deadnettle, Lamium amplexicaule), were planted in pots containing Redi-Earth® planting medium (Scotts Company, 14111 Scottslawn Road, Marysville, Ohio 43041) comprising spaghnum peat moss, vermiculite, wetting agent and starter nutrients and treated with postemergence applications of test chemicals formulated in the same manner. Plants ranged in height from 2 to 18 cm (1- to 4-leaf stage) for postemergence treatments. Treated plants and controls were maintained in a greenhouse for 13 to 15 days, after which time all species were compared to controls and visually evaluated. Plant response ratings, summarized in Table C, are based on a scale of 0 to 100 where 0 is no effect and 100 is complete control. A dash (-) response means no test result.

lambsquarters = assay: Test C postemergence; type: in vivo, Chenopodium album; details: for Plant response rating (scale of 0 to 100 where 0 is no effect and 100 is complete control), Lambsquarters: Postemergence, 31 g ai/ha, visually evaluated after 13 to 15 days; for Lambsquarters plant response rating / Plant response rating, Lambsquarters: postemergence; for Lambsquarters plant response rating: 62 g ai/ha, scale 0 to 100
Description: as §4, §5

barnyardgrass = assay: Test C postemergence; type: in vivo, Echinochloa crus-galli; details: for Plant response rating (scale of 0 to 100 where 0 is no effect and 100 is complete control), Barnyardgrass: Postemergence, 31 g ai/ha, visually evaluated after 13 to 15 days; for Barnyardgrass plant response rating / Plant response rating, Barnyardgrass: postemergence; for Barnyardgrass plant response rating: 62 g ai/ha, scale 0 to 100
Description: as §4, §5

wheat [5] = assay: Test C preemergence; type: in vivo, Triticum aestivum; details: preemergence
Summary of the method: as §3

[6] = Preemergence, 500 g ai/ha, 0 to 100 scale, 0 no effect, 100 complete control
[7] = preemergence, 125 g ai/ha, visual injury, 0 to 100 scale, approx. 10 days
[8] = Postemergence, 500 g ai/ha, visual rating after approx. 10 days, 0 to 100 scale (0 no effect, 100 complete control)
[9] = postemergence, 125 g ai/ha, about 10 days, visual rating on 0 to 100 scale (0 no effect, 100 complete control)
[10] = 31 g ai/ha, visual rating, scale 0 to 100 (0 no effect, 100 complete control), 13 to 15 days
[11] = 125 g ai/ha, scale 0 to 100, 0 is no effect, 100 is complete control
[12] = 250 g ai/ha, scale 0 to 100 (0 no effect, 100 complete control)
[13] = 125 g ai/ha, scale 0 to 100, 0 no effect, 100 complete control
[14] = preemergence, 500 g ai/ha, visual injury after approx. 10 days, 0 to 100 scale (0 no effect, 100 complete control)
[15] = Postemergence, 500 g ai/ha, 0 to 100 scale (0 no effect, 100 complete control)
[16] = Postemergence, 125 g ai/ha, 0 to 100 scale, 0 no effect, 100 complete control
[17] = 62 g ai/ha, scale 0 to 100 (0 no effect, 100 complete control), 13 to 15 days
[18] = 250 g ai/ha, scale 0 to 100, 0 is no effect, 100 is complete control

| SMILES | Crabgrass, Large plant response rating (crabgrass, large [1]; [7]) | Pigweed plant response rating (pigweed; [7]) | Crabgrass, Large plant response rating (crabgrass, large [2]; [9]) | Wheat plant response rating (wheat [3]; [9]) | Corn plant response rating (corn; [9]) | Plant response rating, Rice (rice) | Plant response rating, Ducksalad (ducksalad) | Galium plant response rating (galium; [10]) | Waterhemp plant response rating (waterhemp; [10]) | Plant response rating, Wheat (wheat [4]; [12]) | Plant response rating (scale of 0 to 100 where 0 is no effect and 100 is complete control), Lambsquarters (lambsquarters) | Lambsquarters plant response rating (lambsquarters) | Plant response rating, Lambsquarters (lambsquarters; [12]) | Plant response rating, Lambsquarters (lambsquarters; [13]) | Plant response rating (scale of 0 to 100 where 0 is no effect and 100 is complete control), Barnyardgrass (barnyardgrass) | Barnyardgrass plant response rating (barnyardgrass) | Plant response rating, Barnyardgrass (barnyardgrass; [12]) | Plant response rating, Barnyardgrass (barnyardgrass; [13]) | Wheat plant response rating (wheat [3]; [15]) | Corn plant response rating (corn; [15]) | other results |
| --- | --- | --- | --- | --- | --- | --- | --- | --- | --- | --- | --- | --- | --- | --- | --- | --- | --- | --- | --- | --- | --- |
| CCc1cc(C(=O)NCC(F)(F)F)nn1Cc1ccnc(C(F)(F)F)c1 [Compound 78, 5-ethyl-N-(2,2,2-trifluoroethyl)-1-[[(2-trifluoromethyl)-4-pyridinyl]methyl]-1H-pyrazole-3-carboxamide] | 100 | 100 | 90 | 70 | 100 | 50 | 85 | 85 | 100 | 35 | 60 | 75 | 98 | 95 | 5 | 15 | 80 | 15 |  |  | Crabgrass, Large plant response rating (crabgrass, large [1]; [6]): 100; Pigweed plant response rating (pigweed; [6]): 100; Crabgrass, Large plant response rating (crabgrass, large [2]; [8]): 100; Wheat plant response rating (wheat [3]; [8]): 80; Corn plant response rating (corn; [8]): 100; Plant response rating (scale of 0 to 100), Galium (galium; Preemergence, 250 g ai/ha): 100; Plant response rating, Galium (galium; 62 g ai/ha, 13 to 15 days): 100; Galium plant response rating (galium; [11]): 100; Plant response rating (scale of 0 to 100), Waterhemp (waterhemp; Preemergence, 250 g ai/ha): 100; Plant response rating, Waterhemp (waterhemp; 62 g ai/ha, 13 to 15 days): 100; Waterhemp plant response rating (waterhemp; [11]): 100; Plant response rating (scale of 0 to 100 where 0 is no effect and 100 is complete control), Wheat (wheat [4]): 5; Wheat plant response rating (wheat [4]; 62 g ai/ha): 10; Plant response rating, Wheat (wheat [4]; [13]): 10 |
| CCCc1cc(C(=O)NCC(F)(F)F)nn1Cc1cc(C(F)(F)F)nn1C [Compound 138] | 100 | 100 | 100 | 80 | 80 | 50 | 80 |  |  | 15 |  | 40 | 95 | 75 | 10 | 25 | 65 | 20 | 90 | 90 | Crabgrass, Large plant response rating (crabgrass, large [1]; [14]): 100; Pigweed plant response rating (pigweed; [14]): 100; Crabgrass, Large plant response rating (crabgrass, large [2]; [15]): 100; Plant response rating (scale of 0 to 100 where 0 is no effect and 100 is complete control), Wheat (wheat [4]): 5; Wheat plant response rating (wheat [4]; 62 g ai/ha): 5; Wheat plant response rating (wheat [4]): 15 |
| CCNC(=O)c1cc(CC)n(Cc2ccnc(C(F)(F)F)c2)n1 [Compound 196] |  |  | 90 |  | 80 | 20 | 80 | 98 | 100 | 5 | 60 | 65 | 75 | 75 | 5 | 5 | 35 | 20 | 90 | 90 | Crabgrass, Large plant response rating (0 to 100 scale) (crabgrass, large [1]; preemergence, 125 g ai/ha, visual injury approx. 10 days after treatment): 100; Crabgrass, Large plant response rating (crabgrass, large [1]; [14]): 100; Pigweed plant response rating (0 to 100 scale) (pigweed; preemergence, 125 g ai/ha): 100; Pigweed plant response rating (pigweed; [14]): 100; Crabgrass, Large plant response rating (crabgrass, large [2]; [15]): 100; Wheat plant response rating (wheat [3]; [16]): 40; Wheat plant response rating (wheat [5]; [10]): 0; Wheat plant response rating (wheat [5]; [17]): 65; Plant response rating, Wheat (wheat [5]; 125 g ai/ha, 13 to 15 days, scale 0 to 100, 0 = no effect, 100 = complete control): 85; Wheat plant response rating (wheat [5]; [18]): 80; Galium plant response rating (galium; [17]): 95; Plant response rating, Galium (galium; 125 g ai/ha, 13 to 15 days): 100; Galium plant response rating (galium; [18]): 100; Waterhemp plant response rating (waterhemp; [17]): 100; Plant response rating, Waterhemp (waterhemp; 125 g ai/ha, 13 to 15 days): 100; Waterhemp plant response rating (waterhemp; [18]): 100 |
| CCc1cc(C(=O)NCC(F)(F)F)nn1Cc1cc(OC(F)F)nn1C [Compound 206] |  |  |  |  | 30 | 0 | 0 |  |  | 0 | 10 | 10 | 30 | 15 | 5 | 5 | 5 | 5 | 20 | 60 | Pigweed plant response rating (0 to 100 scale) (pigweed; preemergence, 125 g ai/ha): 90; Wheat plant response rating (wheat [3]; [16]): 10; Wheat plant response rating (wheat [4]): 0 |
